Source: ChEMBL document CHEMBL3044671, “Synthesis and in vitro antimicrobial and anti-tubercular evaluation of some quinoline-based azitidinone and thiazolidinone analogues” (2013)
In brackets after ≈: the same amount, converted by molar mass.

Columns and labels:
Type in all cases: functional
Candida albicans [1] = assay: Antimicrobial activity against Candida albicans MTCC 183 assessed as growth inhibition by agar streak dilution method
[2] = test system: Mycobacterium tuberculosis; assay: Antitubercular activity against Mycobacterium tuberculosis H37Rv assessed as growth inhibition by BACTEC MGIT method
Candida albicans [3] = assay: Antimicrobial activity against Candida albicans MTCC 183 assessed as diameter of growth zone inhibition by agar streak dilution method
Bacillus subtilis [4] = assay: Antimicrobial activity against Bacillus subtilis MTCC 430 assessed as growth inhibition by agar streak dilution method
Staphylococcus aureus [5] = assay: Antimicrobial activity against Staphylococcus aureus MTCC 96 assessed as diameter of growth zone inhibition by agar streak dilution method
Aspergillus niger [6] = assay: Antimicrobial activity against Aspergillus niger MTCC 282 assessed as growth inhibition by agar streak dilution method
Escherichia coli [7] = assay: Antimicrobial activity against Escherichia coli MTCC 739 assessed as growth inhibition by agar streak dilution method
Staphylococcus aureus [8] = assay: Antimicrobial activity against Staphylococcus aureus MTCC 96 assessed as growth inhibition by agar streak dilution method
Aspergillus niger [9] = assay: Antimicrobial activity against Aspergillus niger MTCC 282 assessed as diameter of growth zone inhibition by agar streak dilution method
Pseudomonas aeruginosa [10] = assay: Antimicrobial activity against Pseudomonas aeruginosa MTCC 741 assessed as diameter of growth zone inhibition by agar streak dilution method
Pseudomonas aeruginosa [11] = assay: Antimicrobial activity against Pseudomonas aeruginosa MTCC 741 assessed as growth inhibition by agar streak dilution method
Bacillus subtilis [12] = assay: Antimicrobial activity against Bacillus subtilis MTCC 430 assessed as diameter of growth zone inhibition by agar streak dilution method
Escherichia coli [13] = assay: Antimicrobial activity against Escherichia coli MTCC 739 assessed as diameter of growth zone inhibition by agar streak dilution method

Structure (SMILES)	MIC (Candida albicans [1]) [µg/mL]	MIC [2] [µg/mL]	diameter of the inhibition zone (DIZ) (Candida albicans [3]) [mm]	MIC (Bacillus subtilis [4]) [µg/mL]	diameter of the inhibition zone (DIZ) (Staphylococcus aureus [5]) [mm]	MIC (Aspergillus niger [6]) [µg/mL]	MIC (Escherichia coli [7]) [µg/mL]	MIC (Staphylococcus aureus [8]) [µg/mL]	diameter of the inhibition zone (DIZ) (Aspergillus niger [9]) [mm]	diameter of the inhibition zone (DIZ) (Pseudomonas aeruginosa [10]) [mm]	MIC (Pseudomonas aeruginosa [11]) [µg/mL]	diameter of the inhibition zone (DIZ) (Bacillus subtilis [12]) [mm]	diameter of the inhibition zone (DIZ) (Escherichia coli [13]) [mm]
Cc1cnc(N2C(=O)C(Cl)C2c2cc3ccccc3nc2S)s1 (stereo not drawn)	62.5 (≈ 173 µM)	125 (≈ 345 µM)	24	6.25 (≈ 17.3 µM)	24	50 (≈ 138 µM)	12.5 (≈ 34.5 µM)	25 (≈ 69.1 µM)	22	22	100 (≈ 276 µM)	22	24
O=C1CSC(c2cc3ccccc3nc2S)N1c1ccccc1 (stereo not drawn)	100 (≈ 295 µM)	1000 (≈ 2950 µM)	15	100 (≈ 295 µM)	19	100 (≈ 295 µM)	100 (≈ 295 µM)	100 (≈ 295 µM)	16	17	100 (≈ 295 µM)	17	16
Cc1ccccc1N1C(=O)CSC1c1cc2ccccc2nc1S (stereo not drawn)	100 (≈ 284 µM)	500 (≈ 1420 µM)	17	100 (≈ 284 µM)	20	100 (≈ 284 µM)	100 (≈ 284 µM)	100 (≈ 284 µM)	16	14	1000 (≈ 2840 µM)	15	15
Cc1cccc(N2C(=O)CSC2c2cc3ccccc3nc2S)c1 (stereo not drawn)	100 (≈ 284 µM)	500 (≈ 1420 µM)	19	100 (≈ 284 µM)	21	100 (≈ 284 µM)	100 (≈ 284 µM)	62.5 (≈ 177 µM)	20	18	100 (≈ 284 µM)	19	19
Cc1ccc(N2C(=O)CSC2c2cc3ccccc3nc2S)cc1 (stereo not drawn)	100 (≈ 284 µM)	250 (≈ 709 µM)	15	100 (≈ 284 µM)	20	100 (≈ 284 µM)	100 (≈ 284 µM)	100 (≈ 284 µM)	17	19	100 (≈ 284 µM)	20	19
O=C1CSC(c2cc3ccccc3nc2S)N1c1ccccc1[N+](=O)[O-] (stereo not drawn)	62.5 (≈ 163 µM)	250 (≈ 652 µM)	22	62.5 (≈ 163 µM)	22	50 (≈ 130 µM)	62.5 (≈ 163 µM)	62.5 (≈ 163 µM)	23	23	25 (≈ 65.2 µM)	23	23
O=C1CSC(c2cc3ccccc3nc2S)N1c1cccc([N+](=O)[O-])c1 (stereo not drawn)	100 (≈ 261 µM)	125 (≈ 326 µM)	20	50 (≈ 130 µM)	22	25 (≈ 65.2 µM)	6.25 (≈ 16.3 µM)	50 (≈ 130 µM)	23	23	25 (≈ 65.2 µM)	22	24
O=C1CSC(c2cc3ccccc3nc2S)N1c1ccc([N+](=O)[O-])cc1 (stereo not drawn)	100 (≈ 261 µM)	62.5 (≈ 163 µM)	18	50 (≈ 130 µM)	23	25 (≈ 65.2 µM)	6.25 (≈ 16.3 µM)	12.5 (≈ 32.6 µM)	25	24	12.5 (≈ 32.6 µM)	23	23
O=C1CSC(c2cc3ccccc3nc2S)N1c1ccccc1Cl (stereo not drawn)	100 (≈ 268 µM)	125 (≈ 335 µM)	22	12.5 (≈ 33.5 µM)	23	62.5 (≈ 168 µM)	12.5 (≈ 33.5 µM)	6.25 (≈ 16.8 µM)	21	23	62.5 (≈ 168 µM)	25	23
O=C1CSC(c2cc3ccccc3nc2S)N1c1cccc(Cl)c1 (stereo not drawn)	62.5 (≈ 168 µM)	125 (≈ 335 µM)	22	3.12 (≈ 8.37 µM)	24	50 (≈ 134 µM)	50 (≈ 134 µM)	6.25 (≈ 16.8 µM)	25	25	12.5 (≈ 33.5 µM)	25	22
O=C1CSC(c2cc3ccccc3nc2S)N1c1ccc(Cl)cc1 (stereo not drawn)	100 (≈ 268 µM)	62.5 (≈ 168 µM)	24	3.12 (≈ 8.37 µM)	25	12.5 (≈ 33.5 µM)	25 (≈ 67 µM)	6.25 (≈ 16.8 µM)	25	24	25 (≈ 67 µM)	25	23
O=C1CSC(c2cc3ccccc3nc2S)N1c1ccc(F)cc1 (stereo not drawn)	25 (≈ 70.1 µM)	62.5 (≈ 175 µM)	26	6.25 (≈ 17.5 µM)	25	12.5 (≈ 35.1 µM)	12.5 (≈ 35.1 µM)	3.12 (≈ 8.75 µM)	26	24	50 (≈ 140 µM)	25	24
Cc1cnc(N2C(=O)CSC2c2cc3ccccc3nc2S)s1 (stereo not drawn)	62.5 (≈ 174 µM)	62.5 (≈ 174 µM)	24	25 (≈ 69.5 µM)	24	62.5 (≈ 174 µM)	12.5 (≈ 34.8 µM)	12.5 (≈ 34.8 µM)	23	23	62.5 (≈ 174 µM)	23	24
O=C(O)c1cn(C2CC2)c2cc(N3CCNCC3)c(F)cc2c1=O [CIPROFLOXACIN]	–	–	–	≤ 1	30	–	≤ 1	≤ 1	–	33	≤ 1	31	32
NNC(=O)c1ccncc1 [ISONIAZID]	–	0.2 (≈ 1.46 µM)	–	–	–	–	–	–	–	–	–	–	–
CC(=O)N1CCN(c2ccc(OCC3COC(Cn4ccnc4)(c4ccc(Cl)cc4Cl)O3)cc2)CC1 (stereo not drawn) [KETOCONAZOLE]	≤ 1	–	33	–	–	≤ 3	–	–	30	–	–	–	–
CO[C@H]1/C=C/O[C@@]2(C)Oc3c(C)c(O)c4c(O)c(c(/C=N/N5CCN(C)CC5)c(O)c4c3C2=O)NC(=O)/C(C)=C\C=C\[C@H](C)[C@H](O)[C@@H](C)[C@@H](O)[C@@H](C)[C@H](OC(C)=O)[C@@H]1C [RIFAMPIN]	–	40 (≈ 48.6 µM)	–	–	–	–	–	–	–	–	–	–	–
